Source: ChEMBL document CHEMBL4011659, “Combining Elements from Two Antagonists of Formyl Peptide Receptor 2 Generates More Potent Peptidomimetic Antagonists” (J Med Chem, 2017)
Calls of active or inactive are those of the source. No cut-off for these calls is given here. Peptide text beside a SMILES is read from it. * marks the point of attachment. RhodamineB = CCN(CC)c1ccc2c(-c3ccccc3C(=O)*)c3ccc(=[N+](CC)CC)cc-3oc2c1

Key:
[1] = molecular target: T1, N-formyl peptide receptor 2 (Homo sapiens) (UniProt P25090); assay: Antagonist activity at FPR2 in human peripheral blood polymorphonuclear neutrophils assessed as inhibition of WKYMVM-peptide induced ROS production at <500 nM preincubated for 5 mins followed WKYMVM-peptide stimulation by isoluminol/HRP-based chemiluminescence assay
T1 sequence (whole entry): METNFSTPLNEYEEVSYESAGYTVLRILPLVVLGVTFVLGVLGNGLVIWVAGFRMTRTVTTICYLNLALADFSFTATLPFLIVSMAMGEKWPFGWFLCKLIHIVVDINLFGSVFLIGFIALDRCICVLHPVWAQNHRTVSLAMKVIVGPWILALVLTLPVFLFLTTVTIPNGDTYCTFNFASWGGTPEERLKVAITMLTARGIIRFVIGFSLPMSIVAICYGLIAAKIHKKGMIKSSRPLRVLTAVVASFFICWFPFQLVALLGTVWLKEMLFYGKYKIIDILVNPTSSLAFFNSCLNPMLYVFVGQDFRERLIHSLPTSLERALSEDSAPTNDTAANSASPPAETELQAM

[2] = molecular target: T2, fMet-Leu-Phe receptor (Homo sapiens) (UniProt P21462); assay: Antagonist activity at FPR1 in human peripheral blood polymorphonuclear neutrophils assessed as inhibition of fMLF-induced ROS production at <500 nM preincubated for 5 mins followed fMLF stimulation by isoluminol/HRP-based chemiluminescence assay
T2 sequence (whole entry): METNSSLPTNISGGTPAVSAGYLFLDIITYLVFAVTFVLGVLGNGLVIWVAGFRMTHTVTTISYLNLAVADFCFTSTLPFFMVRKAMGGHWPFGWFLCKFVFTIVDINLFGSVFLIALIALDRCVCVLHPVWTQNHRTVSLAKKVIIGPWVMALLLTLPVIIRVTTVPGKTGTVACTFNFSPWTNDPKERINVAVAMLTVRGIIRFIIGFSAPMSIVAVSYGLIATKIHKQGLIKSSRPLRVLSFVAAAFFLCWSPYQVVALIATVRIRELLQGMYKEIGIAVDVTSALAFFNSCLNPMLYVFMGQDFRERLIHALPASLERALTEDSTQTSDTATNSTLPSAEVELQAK

[3] = molecular target: T2, fMet-Leu-Phe receptor (Homo sapiens); assay: Antagonist activity at FPR1 in human peripheral blood polymorphonuclear neutrophils assessed as inhibition of fMLF-induced ROS production at >= 1 uM preincubated for 5 mins followed by fMLF stimulation by isoluminol/HRP-based chemiluminescence assay
[4] = molecular target: T3, N-formyl peptide receptor 2 (Homo sapiens, UniProt P25090); assay: Antagonist activity at FPR2 in human peripheral blood polymorphonuclear neutrophils assessed as inhibition of WKYMVM-peptide induced ROS production preincubated for 5 mins followed WKYMVM-peptide stimulation by isoluminol/HRP-based chemiluminescence assay
T3 sequence (P25090 whole entry): T1 sequence (whole entry)

[5] = molecular target: T3, N-formyl peptide receptor 2; assay: Antagonist activity at FPR2 in human peripheral blood polymorphonuclear neutrophils assessed as inhibition of WKYMVM-peptide induced ROS production preincubated for 5 mins followed WKYMVM-peptide stimulation measured up to 20 mins by isoluminol-based chemiluminescence assay
Neutrophil = assay: Inhibition of PMA-induced superoxide production in human peripheral blood polymorphonuclear neutrophils at 500 nM preincubated for 5 mins followed PMA stimulation by isoluminol/HRP-based chemiluminescence assay; type: functional, cell-based

inhibition [2] | IC50 [4] [nM] | Structure (SMILES) | further results
inactive |  | CCN(CC)c1ccc2c(-c3ccccc3C(=O)N[C@@H](CCCCN)C(=O)N[C@@H](Cc3ccccc3)C(=O)N[C@@H](CCCCN)C(=O)N[C@@H](Cc3ccccc3)C(=O)N[C@@H](CCCCN)C(=O)N[C@@H](Cc3ccccc3)C(=O)N[C@@H](CCCCN)C(=O)N[C@@H](Cc3ccccc3)C(=O)N[C@@H](CCCCN)C(=O)N[C@@H](Cc3ccccc3)C(=O)N[C@@H](CCCCN)C(=O)N[C@@H](Cc3ccccc3)C(N)=O)c3ccc(=[N+](CC)CC)cc-3oc2c1 (RhodamineB-KFKFKFKFKFKF-NH2) | inhibition [1]: inactive
 | 900 | CCCCCCCCCCCCCCCC(=O)N[C@@H](CCC(N)=O)C(=O)N[C@@H](CCCNC(=N)N)C(=O)N[C@@H](CC(C)C)C(=O)N[C@@H](Cc1ccccc1)C(=O)N[C@@H](CCC(N)=O)C(=O)NC(C(=O)N[C@@H](CCCCN)C(=O)NCC(=O)N[C@@H](CCCNC(=N)N)C(=O)N[C@@H](CCCNC(=N)N)C(N)=O)C(C)C (single isomer, unassigned) | inhibition [3]: Active
 | 1120 | CCCCCCCCCCCCCCCC(=O)N[C@H](CCC(N)=O)C(=O)N[C@H](CCCNC(=N)N)C(=O)N[C@H](CC(C)C)C(=O)N[C@H](Cc1ccccc1)C(=O)N[C@H](CCC(N)=O)C(=O)N[C@@H](C(=O)N[C@H](CCCCN)C(=O)NCC(=O)N[C@H](CCCNC(=N)N)C(=O)N[C@H](CCCNC(=N)N)C(N)=O)C(C)C | inhibition [3]: Active
inactive | 10 | CCN(CC)c1ccc2c(-c3ccccc3C(=O)N[C@@H](CCCCN)C(=O)N(CCC(=O)N[C@@H](CCCCN)C(=O)N(CCC(=O)N[C@@H](CCCCN)C(=O)N(CCC(=O)N[C@@H](CCCCN)C(=O)N(CCC(=O)N[C@@H](CCCCN)C(=O)N(CCC(=O)N[C@@H](CCCCN)C(=O)N(CCC(N)=O)Cc3ccc(F)cc3)Cc3ccc(F)cc3)Cc3ccc(F)cc3)Cc3ccc(F)cc3)Cc3ccc(F)cc3)Cc3ccc(F)cc3)c3ccc(=[N+](CC)CC)cc-3oc2c1 | inhibition (Neutrophil): Active
inactive | 44 | CCN(CC)c1ccc2c(-c3ccccc3C(=O)N[C@@H](CCCCN)C(=O)N(CCC(=O)N[C@@H](CCCCN)C(=O)N(CCC(=O)N[C@@H](CCCCN)C(=O)N(CCC(=O)N[C@@H](CCCCN)C(=O)N(CCC(=O)N[C@@H](CCCCN)C(=O)N(CCC(=O)N[C@@H](CCCCN)C(=O)N(CCC(N)=O)[C@H](C)c3ccccc3)[C@H](C)c3ccccc3)[C@H](C)c3ccccc3)[C@H](C)c3ccccc3)[C@H](C)c3ccccc3)[C@H](C)c3ccccc3)c3ccc(=[N+](CC)CC)cc-3oc2c1 | 
inactive | 273 | CCN(CC)c1ccc2c(-c3ccccc3C(=O)N[C@@H](CCCCN)C(=O)N(CCC(=O)N[C@@H](CCCCN)C(=O)N(CCC(N)=O)Cc3ccccc3)Cc3ccccc3)c3ccc(=[N+](CC)CC)cc-3oc2c1 | 
inactive | 41 | CCN(CC)c1ccc2c(-c3ccccc3C(=O)N[C@@H](CCCCN)C(=O)N(CCC(=O)N[C@@H](CCCCN)C(=O)N(CCC(=O)N[C@@H](CCCCN)C(=O)N(CCC(=O)N[C@@H](CCCCN)C(=O)N(CCC(=O)N[C@@H](CCCCN)C(=O)N(CCC(=O)N[C@@H](CCCCN)C(=O)N(CCC(=O)N[C@@H](CCCCN)C(=O)N(CCC(=O)N[C@@H](CCCCN)C(=O)N(CCC(N)=O)Cc3ccccc3)Cc3ccccc3)Cc3ccccc3)Cc3ccccc3)Cc3ccccc3)Cc3ccccc3)Cc3ccccc3)Cc3ccccc3)c3ccc(=[N+](CC)CC)cc-3oc2c1 | 
inactive |  | CCN(CC)c1ccc2c(-c3ccccc3C(=O)N[C@H](CCC(N)=O)C(=O)N[C@H](CCCNC(=N)N)C(=O)N[C@H](CC(C)C)C(=O)N[C@H](Cc3ccccc3)C(=O)N[C@H](CCC(N)=O)C(=O)N[C@@H](C(=O)N[C@H](CCCCN)C(=O)NCC(=O)N[C@H](CCCNC(=N)N)C(=O)N[C@H](CCCNC(=N)N)C(N)=O)C(C)C)c3ccc(=[N+](CC)CC)cc-3oc2c1 | inhibition [1]: inactive
inactive | 28 | CCN(CC)c1ccc2c(-c3ccccc3C(=O)N[C@@H](CCCCN)C(=O)N(CCC(=O)N[C@@H](CCCCN)C(=O)N(CCC(=O)N[C@@H](CCCCN)C(=O)N(CCC(N)=O)Cc3ccccc3)Cc3ccccc3)Cc3ccccc3)c3ccc(=[N+](CC)CC)cc-3oc2c1 | 
inactive | 53 | CCN(CC)c1ccc2c(-c3ccccc3C(=O)N[C@@H](CCCCN)C(=O)N(CCC(=O)N[C@@H](CCCCN)C(=O)N(CCC(=O)N[C@@H](CCCCN)C(=O)N(CCC(=O)N[C@@H](CCCCN)C(=O)N(CCC(=O)N[C@@H](CCCCN)C(=O)N(CCC(=O)N[C@@H](CCCCN)C(=O)N(CCC(N)=O)Cc3cc(F)c(F)c(F)c3)Cc3cc(F)c(F)c(F)c3)Cc3cc(F)c(F)c(F)c3)Cc3cc(F)c(F)c(F)c3)Cc3cc(F)c(F)c(F)c3)Cc3cc(F)c(F)c(F)c3)c3ccc(=[N+](CC)CC)cc-3oc2c1 | 
inactive | 24 | CCN(CC)c1ccc2c(-c3ccccc3C(=O)N[C@@H](CCCCN)C(=O)N(CCC(=O)N[C@@H](CCCCN)C(=O)N(CCC(=O)N[C@@H](CCCCN)C(=O)N(CCC(=O)N[C@@H](CCCCN)C(=O)N(CCC(=O)N[C@@H](CCCCN)C(=O)N(CCC(=O)N[C@@H](CCCCN)C(=O)N(CCC(N)=O)Cc3ccc(C)cc3)Cc3ccc(C)cc3)Cc3ccc(C)cc3)Cc3ccc(C)cc3)Cc3ccc(C)cc3)Cc3ccc(C)cc3)c3ccc(=[N+](CC)CC)cc-3oc2c1 | 
inactive | 34 | CCN(CC)c1ccc2c(-c3ccccc3C(=O)N[C@@H](CCCCN)C(=O)N(CCC(=O)N[C@@H](CCCCN)C(=O)N(CCC(=O)N[C@@H](CCCCN)C(=O)N(CCC(=O)N[C@@H](CCCCN)C(=O)N(CCC(=O)N[C@@H](CCCCN)C(=O)N(CCC(=O)N[C@@H](CCCCN)C(=O)N(CCC(N)=O)[C@@H](C)c3ccccc3)[C@@H](C)c3ccccc3)[C@@H](C)c3ccccc3)[C@@H](C)c3ccccc3)[C@@H](C)c3ccccc3)[C@@H](C)c3ccccc3)c3ccc(=[N+](CC)CC)cc-3oc2c1 | 
inactive | 13 | CCN(CC)c1ccc2c(-c3ccccc3C(=O)N[C@@H](CCCCN)C(=O)N(CCC(=O)N[C@@H](CCCCN)C(=O)N(CCC(=O)N[C@@H](CCCCN)C(=O)N(CCC(=O)N[C@@H](CCCCN)C(=O)N(CCC(N)=O)Cc3ccccc3)Cc3ccccc3)Cc3ccccc3)Cc3ccccc3)c3ccc(=[N+](CC)CC)cc-3oc2c1 | 
inactive | 18 | CCN(CC)c1ccc2c(-c3ccccc3C(=O)N[C@@H](CCCCN)C(=O)N(CCC(=O)N[C@@H](CCCCN)C(=O)N(CCC(=O)N[C@@H](CCCCN)C(=O)N(CCC(=O)N[C@@H](CCCCN)C(=O)N(CCC(=O)N[C@@H](CCCCN)C(=O)N(CCC(N)=O)Cc3ccccc3)Cc3ccccc3)Cc3ccccc3)Cc3ccccc3)Cc3ccccc3)c3ccc(=[N+](CC)CC)cc-3oc2c1 | 
inactive | 35 | CCN(CC)c1ccc2c(-c3ccccc3C(=O)N[C@@H](CCCCN)C(=O)N(CCC(=O)N[C@@H](CCCCN)C(=O)N(CCC(=O)N[C@@H](CCCCN)C(=O)N(CCC(=O)N[C@@H](CCCCN)C(=O)N(CCC(=O)N[C@@H](CCCCN)C(=O)N(CCC(=O)N[C@@H](CCCCN)C(=O)N(CCC(=O)N[C@@H](CCCCN)C(=O)N(CCC(N)=O)Cc3ccccc3)Cc3ccccc3)Cc3ccccc3)Cc3ccccc3)Cc3ccccc3)Cc3ccccc3)Cc3ccccc3)c3ccc(=[N+](CC)CC)cc-3oc2c1 | 
inactive |  | CCCCCCCCCCCCCCCC(=O)N[C@@H](CCCCN)C(=O)N(CCC(=O)N[C@@H](CCCCN)C(=O)N(CCC(=O)N[C@@H](CCCCN)C(=O)N(CCC(=O)N[C@@H](CCCCN)C(=O)N(CCC(=O)N[C@@H](CCCCN)C(=O)N(CCC(=O)N[C@@H](CCCCN)C(=O)N(CCC(N)=O)[C@@H](C)c1ccccc1)[C@@H](C)c1ccccc1)[C@@H](C)c1ccccc1)[C@@H](C)c1ccccc1)[C@@H](C)c1ccccc1)[C@@H](C)c1ccccc1 | IC50 [5]: 41 nM
inactive | 759 | CCN(CC)c1ccc2c(-c3ccccc3C(=O)N[C@@H](CCCCN)C(=O)N(CCC(N)=O)Cc3ccccc3)c3ccc(=[N+](CC)CC)cc-3oc2c1 | 

Structure (SMILES) | inhibition [2] | IC50 [4] [nM] | further results
CCN(CC)c1ccc2c(-c3ccccc3C(=O)N[C@@H](CCC(N)=O)C(=O)N[C@@H](CCCNC(=N)N)C(=O)N[C@@H](CC(C)C)C(=O)N[C@@H](Cc3ccccc3)C(=O)N[C@@H](CCC(N)=O)C(=O)NC(C(=O)N[C@@H](CCCCN)C(=O)NCC(=O)N[C@@H](CCCNC(=N)N)C(=O)N[C@@H](CCCNC(=N)N)C(=O)O)C(C)C)c3ccc(=[N+](CC)CC)cc-3oc2c1 (single isomer, unassigned) | inactive |  | IC50 [5]: 60 nM
